Results as given in PMC6272497, “Biological Activities and Cytotoxicity of Diterpenes from Copaifera spp. Oleoresins” (Molecules, 2015).
“And” between values parts separate entries of the source, which are not always exact repeats. Equal values may be shown once. “Also recorded” adds a separate entry of the source.

Assays:
[1] = tested on: nitric oxide production in J774 macrophages stimulated with LPS; test: NO production assay (Griess) in LPS-stimulated J774 cells; assay type: cell-based, murine; conditions: Mus musculus; for IC50: J774, LPS 1 µg/mL, 24 h, read-out: inhibition of NO production IC50
Method: Our study evaluated the effects of diterpene compounds on the production of nitric oxide in the murine macrophage cell line J774 stimulated with LPS (Figure 2D). NO^• levels were measured by the Greiss method. […] Similar results for kaurenoic acid were observed by Choi et al. […] Figure 2 Effect of the isolated diterpenic acids on nitric oxide (NO^•) and cytokine production in lipopolysaccharide-stimulated J774 cells. (A) TNF-α, (B) IL-6 and (C) IL-10 and (D) NO^•. […] The nitrite and cytokines values are the mean ± S.D. from three independent experiments. Indomethacin was used as a standard. Statistical analysis was performed using the Holm-Sidak multiple comparison. * p < 0.05 when compared to control stimulated with LPS. (1) 3-hydroxy-copalic acid, (2) kaurenoic acid, (3) 3-acetoxy-copalic acid, (4) kolavic acid 15-methyl ester, (5) copalic acid and (6) […]. NO^• production by J774 cells was assayed by measuring the accumulation of nitrite in the culture medium using a Griess reaction. Briefly, after incubation of the cells (1 × 10^6 cells/mL) with diterpene compounds in different concentrations from 6.25 to 100 μM, cells were incubated for 24 h with LPS (1 μg/mL), at 37 °C in a 5% CO2 incubator. Nitric oxide was measured as NO2 in culture supernatant by reaction with Griess reagent. Absorbance of the reaction product was determined at 560 nm using a microplate reader (DTX 800, Beckman). Sodium nitrite was used as a standard to calculate nitrite concentrations.

MCF7 (breast cancer) = test: Alamar Blue assay, tumoral cells MCF7; assay type: cell-based; conditions: 72 h, 20 µmol/L
Method: (§1) We also investigated possible cytotoxic effects on tumor cell lines (Table 1). To characterize this activity, the compounds were tested in different tumor cell lines, among which were AGP-01 (gastric), HCT116 (colorectal), MCF07 (breast cancer), NIHOVCAR (ovary), SKAMELL-4 (melanoma), and SF-295 (human glioblastoma), each at a concentration of 20 µM.
(§2) Cytotoxicity assay. The cytotoxicity of diterpene compounds to the murine macrophage cell line J774 was determined by the Alamar Blue method as described by Nakayama et al.. Briefly, adherent cells (5 × 10^3 cells/well) were grown in 96-well tissue culture plates and exposed to substances (2.5 to 10 µg/mL) for 24, 48 and 72 h. After incubation, the Alamar Blue solution (10 μL of 0.4% Alamar Blue (resazurin) in PBS) was added and the cells were incubated for 3 h at 37 °C. Fluorescence was measured (excitation at 545 nm and emission at 595 nm) and expressed as a percentage of the cells in the control after background fluorescence was subtracted. As a positive control of cell death, doxorubicin (5 µg/mL) was used. The assays were performed in triplicate. For the assays with tumoral cells, an Alamar Blue assay was performed using the following cell lines: AGP01—gastric; HCT116—colorectal; MCF07—breast cancer; NIHOVCAR—ovary; SKAMELL4—melanoma; SF295—human glioblastoma, which were seeded in 96-well plates (0.5 × 10^4 cells per well) and incubated in a CO2 atmosphere at 5% and 37 °C. After 24 h, diterpenes at 20 µM were added to each well and incubated for 72 h. Doxorubicin (10 μM) was used as a positive control and DMSO (0.1%) as a negative control. Before the end of the incubation, 10 µL of Alamar Blue (0.02%) was added to each well. The fluorescent signal was monitored using a multiplate reader using a 530–560 nm excitation wavelength and 590 nm emission wavelength. The fluorescent signal generated from the assay was proportional to the number of live cells in the sample, according to the manufacturer.

HCT-116 (colorectal) = test: Alamar Blue assay, tumoral cells HCT-116; assay type: cell-based; conditions: 72 h, 20 µmol/L
Method: as §1, §2

[2] = tested on: SF295 (human glioblastoma); test: Alamar Blue assay, tumoral cells SF295; assay type: cell-based; conditions: 72 h, 20 µmol/L
Method: as §1, §2

SKMELL28 (melanoma) = test: Alamar Blue assay, tumoral cells SKMELL28; assay type: cell-based; conditions: 72 h, 20 µmol/L
Method: as §1, §2

NIHOVCAR (ovary) = test: Alamar Blue assay, tumoral cells NIHOVCAR; assay type: cell-based; conditions: 72 h, 20 µmol/L
Method: as §1, §2

IL-10 production = IL-10 production in LPS-stimulated J774 cells (CBA); assay type: cell-based, murine
Method: (§3) Figure 2 Effect of the isolated diterpenic acids on nitric oxide (NO^•) and cytokine production in lipopolysaccharide-stimulated J774 cells. (A) TNF-α, (B) IL-6 and (C) IL-10 and (D) NO^•. Production of NO^• was assayed in culture supernatants of macrophages stimulated with LPS (1 µg/mL) for 24 h in the presence of the four compounds (25 µg/mL to cytokines and 50 µg/mL to NO^•). The nitrite and cytokines values are the mean ± S.D. from three independent experiments. Indomethacin was used as a standard. Statistical analysis was performed using the Holm-Sidak multiple comparison. * p < 0.05 when compared to control stimulated with LPS. (1) 3-hydroxy-copalic acid, (2) kaurenoic acid, (3) 3-acetoxy-copalic acid, (4) kolavic acid 15-methyl ester, (5) copalic acid and (6) hardwickiic acid.
Macrophage cells (1 × 10^6 cells/mL) were incubated with different concentrations of diterpene compounds (12.5 to 50 μM), and then stimulated with 1 μg/mL of LPS. The culture supernatants were collected after 24 h of LPS stimulation. The levels of cytokines in the culture media were measured by flow cytometry (BD Cytometric Bead Array—CBA—Mouse Inflammation kit) according to the manufacturer’s instructions.

TNF-α production = tested on: TNF-α production; parameters: method as in PMID 11278990; conditions: cited from earlier work
IL-6 production = IL-6 production in LPS-stimulated J774 cells (CBA); assay type: cell-based, murine; conditions: for inhibition of IL-6 production (words): LPS-stimulated J774; for inhibition at 25 µM: Mus musculus, J774, 25 µM (abstract)
Method: as §3, with “Production of NO^• was assayed in culture supernatants of macrophages stimulated with LPS (1 µg/mL) for 24 h in the presence of the four compounds (25 µg/mL to cytokines and 50 µg/mL to NO^•).” left out
[…] The culture supernatants were collected after 24 h of LPS stimulation. The levels of cytokines in the culture media were measured by flow cytometry (BD Cytometric Bead Array—CBA—Mouse Inflammation kit) according to the manufacturer’s instructions.

erythrocyte = test: Hemolysis test
Method: The assay for the characterization of hemolytic activity aimed to evaluate the potential of diterpenes on lysis of the cell membrane.
Blood was collected in heparinized-tubes from Wistar rats, and washed three times with saline solution (NaCl 0.85% + CaCl2 10 mM) by centrifugation at 700 g for 10 min. The pellet of erythrocyte was re-suspended in saline solution for preparation of erythrocyte suspension −2% (SE). A total of 100 µL of the samples of diluted diterpenes was added to 96-well microplates in different concentrations (6.25 to 800 µM); 100 µL of SE was then added; and the samples were incubated for 60 min at 37 °C under constant agitation. The release of hemoglobin was determined after centrifugation (700 g for 10 min) by photometric analysis of the supernatant at 540 nm. Complete hemolysis was achieved using 0.2% Triton X-100 yielding the 100% control value.

AGP01 (gastric) = test: Alamar Blue assay, tumoral cells AGP01; assay type: cell-based; conditions: 72 h, 20 µmol/L
Method: as §1, §2

tyrosinase = test: Tyrosinase inhibition test; assay type: biochemical
Method: The tyrosinase inhibition test was performed at concentrations of 31.25 to 500 µM.
(§4) Figure 1 Tyrosinase and lipoxygenase activities of the isolated diterpenes from Copaifera sp. […] 1. 3-hydroxy-copalic acid, 2. kaurenoic acid, 3. 3-acetoxy-copalic acid, 4. kolavic acid15-methyl ester, 5. copalic acid, and 6. hardwickiic acid. Each value is the mean ± S.E. of three independent experiments. Statistical analysis was performed using Holm-Sidak multiple comparisons. * p < 0.05 compared with the negative control.

LOX = tested on: LOX; parameters: method as in doi:10.1007/s00044-013-0559-7; conditions: read-out: LOX inhibition IC50; cited from earlier work
Lipoxygenase (LOX) = Lipoxygenase (LOX) (Glycine max, UniProt P08170); test: Lipoxygenase inhibition; assay type: biochemical
Lipoxygenase (LOX), sequence (P08170 whole entry): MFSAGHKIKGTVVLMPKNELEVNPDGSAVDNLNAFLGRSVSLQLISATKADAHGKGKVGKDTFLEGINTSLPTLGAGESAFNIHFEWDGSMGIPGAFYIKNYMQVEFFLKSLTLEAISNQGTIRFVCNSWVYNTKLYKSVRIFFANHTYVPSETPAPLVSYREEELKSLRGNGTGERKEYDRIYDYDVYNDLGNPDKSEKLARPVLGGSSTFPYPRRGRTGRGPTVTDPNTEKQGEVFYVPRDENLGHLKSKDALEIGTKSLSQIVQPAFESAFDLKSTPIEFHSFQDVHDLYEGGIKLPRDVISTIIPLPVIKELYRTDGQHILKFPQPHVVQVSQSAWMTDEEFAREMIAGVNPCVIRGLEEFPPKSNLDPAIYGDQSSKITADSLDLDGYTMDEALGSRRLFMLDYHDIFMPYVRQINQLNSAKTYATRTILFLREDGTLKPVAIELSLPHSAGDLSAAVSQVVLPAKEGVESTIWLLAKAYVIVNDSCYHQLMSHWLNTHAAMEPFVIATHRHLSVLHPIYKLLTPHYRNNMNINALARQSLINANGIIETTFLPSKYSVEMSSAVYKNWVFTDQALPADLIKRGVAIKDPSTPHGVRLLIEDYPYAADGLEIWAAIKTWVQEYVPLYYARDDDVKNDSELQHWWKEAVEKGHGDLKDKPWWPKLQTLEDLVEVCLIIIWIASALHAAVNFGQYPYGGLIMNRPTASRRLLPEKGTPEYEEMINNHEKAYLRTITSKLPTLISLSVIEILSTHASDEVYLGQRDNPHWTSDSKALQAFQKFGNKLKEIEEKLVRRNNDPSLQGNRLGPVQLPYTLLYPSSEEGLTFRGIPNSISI
Method: as §4

[3] = LPS-stimulated J774, 12.5 to 50 µM

IC50 [1] [µM]	Compound	Viability inhibition (%) MCF7 (MCF7 (breast cancer)) [%]	Viability inhibition (%) HCT-116 (HCT-116 (colorectal)) [%]	Viability inhibition (%) SF295 [2] [%]	Viability inhibition (%) SKMELL28 (SKMELL28 (melanoma)) [%]	Viability inhibition (%) NIHOVCAR (NIHOVCAR (ovary)) [%]	IL-10 production (words) (IL-10 production; [3])	further results
67.4 ± 1.3	C[C@@H]1CC[C@@]2(C)C(C(=O)O)=CCC[C@@H]2[C@@]1(C)CCc1ccoc1 [hardwickiic acid, Hardwickiic acid]	≤0.01	≤0.01	≤0.01	≤0.01	≤0.01	did not induce the production of IL-10	
	foliol							inhibition of TNF-α production (TNF-α production): showed inhibitory activity on the production of TNF-α
	linearol acid							inhibition of TNF-α production (TNF-α production): showed inhibitory activity on the production of TNF-α
57.4 ± 0.2	C=C1CC[C@@H]2C(C)(C)CCC[C@@]2(C)[C@@H]1CC/C(C)=C/C(=O)O [copalic acid, Copalic acid]	≤0.01	≤0.01	≤0.01	≤0.01	≤0.01	increased IL-10 production; also recorded: induced IL-10 production; also recorded: induced production of interleukin-10	inhibition at 100 µM ([1]; J774, 100 µM, LPS-activated macrophages): 98.5%; inhibition of IL-6 production (words) (IL-6 production): inhibited the production of IL-6; inhibition at 25 µM (IL-6 production): 4.2%; hemolytic activity (erythrocyte; 100 µM (abstract)): 38.4%; hemolytic activity (erythrocyte; 100 mM (so in the source)): 38.4%
32 ± 3.5	COc1ccc2c(c1)c(CC(=O)O)c(C)n2C(=O)c1ccc(Cl)cc1 [indomethacin, reference compound]							
	C=C1CCC2C(C)(C)[C@H](O)CC[C@@]2(C)[C@@H]1CC/C(C)=C\C(=O)O (some centres unmarked) [3-hydroxy-copalic acid, 3-Hydroxy-copalic acid]	≤0.01	4.7 ± 5.6	20.5 ± 5.0	≤0.01	≤0.01	promoted the induction of IL-10 independent of the dose tested	Viability inhibition (%) AGP01 (AGP01 (gastric)): 8.5 ± 13.1%; Viability inhibition (%) SF295 ([2]; listed as 3-HO-copalic): around 20%; tyrosinase inhibition (tyrosinase; 250 µM): 63.9% and 64% ± 1.5%; tyrosinase activity relative to standard kojic acid (tyrosinase; 63.9% at 250 µM vs 73.5% at 700 µM): three times more active than the standard; tyrosinase inhibitory activity (tyrosinase; conclusions): higher inhibitory activity; IC50 (tyrosinase; tested at 31.25 to 500 µM): 256 µM; IL-10 production (words) (IL-10 production; LPS-stimulated J774, 12.5 to 50 µM, listed as 3-hydroxy-copalic): induced IL-10 production; also recorded: induced production of interleukin-10
	COc1c(C(C)C)cc2c(c1OC)[C@@]13CCC(=O)C(C)(C)[C@@H]1[C@H](OC3=O)C2=O [taxusabietane C]							IC50 (LOX): 69 ± 0.31 µM
	COc1c(C(C)C)cc2c(c1O)C=C1C=CC(=O)C(C)(C)C1CC2=O (centres unmarked) [taxamairin F]							IC50 (LOX): 73 ± 0.14 µM
	O=c1cc(CO)occ1O [Kojic acid, reference compound]							tyrosinase inhibition (activity of standard) (tyrosinase; 700 µM): 73.5%
	C=C1CCC2C(C)(C)[C@H](OC(C)=O)CC[C@@]2(C)[C@@H]1CCC(C)=CC(=O)O (stereo in doubt) [3-acetoxy-copalic acid, 3-Acetoxy-copalic acid]	≤0.01	≤0.01	17.7 ± 0.9	≤0.01	2.0 ± 3.5	increased IL-10 production; also recorded: induced IL-10 production	Viability inhibition (%) AGP01 (AGP01 (gastric)): 13.1 ± 5.3%; Viability inhibition (%) SF295 ([2]; listed as 3-AcO-copalic): around 20%; inhibition of IL-6 production (words) (IL-6 production): inhibited the production of IL-6; inhibition at 25 µM (IL-6 production): 23.8%; IL-10 production (words) (IL-10 production; 12.5 µM and 25 µM): induced the production of IL-10; IL-10 production (words) (IL-10 production; 50 µM): this induction decreased

Compound	IC50 [1] [µM]	Viability inhibition (%) MCF7 (MCF7 (breast cancer)) [%]	Viability inhibition (%) HCT-116 (HCT-116 (colorectal)) [%]	Viability inhibition (%) SF295 [2] [%]	Viability inhibition (%) SKMELL28 (SKMELL28 (melanoma)) [%]	Viability inhibition (%) NIHOVCAR (NIHOVCAR (ovary)) [%]	IL-10 production (words) (IL-10 production; [3])	further results
COC(=O)/C=C(/C)CC[C@@]1(C)[C@H](C)CC[C@@]2(C)C(C(=O)O)=CCC[C@H]12 [kolavic acid 15-methyl ester, Kolavic acid-15-metyl ester]	81.6 ± 2.8	≤0.01	≤0.01	≤0.01	≤0.01	≤0.01	did not induce the production of IL-10	Viability inhibition (%) AGP01 (AGP01 (gastric)): 17.4 ± 6.7%; inhibition of IL-6 production (words) (IL-6 production; listed as kolavic-15-methyl ester): inhibited the production of IL-6; inhibition at 25 µM (IL-6 production): 17.3%; lipoxygenase inhibition (Lipoxygenase (LOX); 200 µM): 89.5% ± 1.2%; lipoxygenase inhibition activity (Lipoxygenase (LOX); conclusions, compared to standard quercetin): high lipoxigenase inhibition activity
